From patent US10759783B2, “Biaryl inhibitors of Bruton'S tyrosine kinase” (BIOGEN MA INC., priority 2013, dated 2020)

Legend:
BTK enzyme = target: T1, BTK enzyme (Homo sapiens, UniProt Q06187); assay: In vitro BTK kinase assay: BTK-POLYGAT-LS assay; assay type: biochemical; conditions: ATP 10 μM, read-out: IC50 (10uMATP)
T1 construct: purchased Upstate 14-552
In short: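 Human BTK activity was measured with final 10 μM ATP and 100 nM polyGAT substrate in pH 7.5 Tris buffer with 10 mM MgCl2, DTT, Triton X-100 and casein.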

[1] = target: BTK (phospho-BTK) in human whole blood (Homo sapiens, UniProt Q06187); assay: In vitro PD assay in human whole blood (pBTK assay)
Chain of BTK (phospho-BTK) in human whole blood (Q06187 whole entry): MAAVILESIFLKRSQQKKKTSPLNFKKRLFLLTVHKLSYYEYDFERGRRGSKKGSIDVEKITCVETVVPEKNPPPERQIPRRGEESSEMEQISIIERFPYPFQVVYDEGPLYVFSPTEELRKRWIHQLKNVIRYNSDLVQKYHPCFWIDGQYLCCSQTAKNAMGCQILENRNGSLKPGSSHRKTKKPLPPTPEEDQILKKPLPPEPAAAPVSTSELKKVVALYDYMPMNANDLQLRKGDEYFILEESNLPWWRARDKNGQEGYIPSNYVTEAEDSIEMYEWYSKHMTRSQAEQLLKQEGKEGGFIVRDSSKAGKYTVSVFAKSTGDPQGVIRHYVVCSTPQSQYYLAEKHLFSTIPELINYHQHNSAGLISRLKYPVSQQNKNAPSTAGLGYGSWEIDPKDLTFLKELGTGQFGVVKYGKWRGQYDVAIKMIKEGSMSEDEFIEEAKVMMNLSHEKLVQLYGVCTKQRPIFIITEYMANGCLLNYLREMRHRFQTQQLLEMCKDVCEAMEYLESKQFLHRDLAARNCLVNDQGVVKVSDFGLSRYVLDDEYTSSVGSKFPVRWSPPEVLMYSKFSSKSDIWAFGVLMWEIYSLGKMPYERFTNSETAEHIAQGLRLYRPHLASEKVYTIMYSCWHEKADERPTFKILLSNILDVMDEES

T1 sequence (Q06187 whole entry): as above

IC50 (BTK enzyme) [nM]	IC50 [1] [nM]	SMILES
< 10	< 500	Cc1cc(-c2ccnc(Nc3cnn(C4CC(C(=O)O)C4)c3)n2)ccc1CNC(=O)c1cnc(C(C)(C)C)s1 (stereo not drawn) [Example I-44, 3-(4-((4-(4-((2-(tert-butyl)thiazole-5-carboxamido)methyl)-3-methylphenyl)pyrimidin-2-yl)amino)-1H-pyrazol-1-yl)cyclobutanecarboxylic acid]
< 10	< 500	Cc1cc(-c2ccnc(Nc3cnn(C4CCNCC4)c3)n2)ccc1CNC(=O)c1cnc(C(C)(C)C)s1 [Example I-45, 2-(tert-butyl)-N-(2-methyl-4-(2-((1-(piperidin-4-yl)-1H-pyrazol-4-yl)amino)pyrimidin-4-yl)benzyl)thiazole-5-carboxamide]
< 10	< 500	Cc1cc(-c2ccnc(Nc3cnn(C4CCN(C)CC4)c3)n2)ccc1CNC(=O)c1cnc(C(C)(C)C)s1 [Example I-46, 2-(tert-butyl)-N-(2-methyl-4-(2-((1-(1-methylpiperidin-4-yl)-1H-pyrazol-4-yl)amino)pyrimidin-4-yl)benzyl)thiazole-5-carboxamide]
< 10	500 to 1500	Cc1cc(-c2ccnc(Nc3cnn(C4CCN(S(C)(=O)=O)CC4)c3)n2)ccc1CNC(=O)c1cnc(C(C)(C)C)s1 [Example I-47, 2-(tert-butyl)-N-(2-methyl-4-(2-((1-(1-(methylsulfonyl)piperidin-4-yl)-1H-pyrazol-4-yl)amino)pyrimidin-4-yl)benzyl)thiazole-5-carboxamide]
< 10	< 500	Cc1cc(-c2ccnc(Nc3cnn([C@H]4CC[C@@H](C(=O)O)CC4)c3)n2)ccc1CNC(=O)c1cnc(C(C)(C)C)s1 [Example I-48, cis-4-(4-((4-(4-((2-(tert-butyl)thiazole-5-carboxamido)methyl)-3-methylphenyl)pyrimidin-2-yl)amino)-1H-pyrazol-1-yl)cyclohexanecarboxylic acid]
< 10	< 500	Cc1cc(-c2ccnc(Nc3cnn([C@H]4CC[C@H](C(=O)O)CC4)c3)n2)ccc1CNC(=O)c1cnc(C(C)(C)C)s1 [Example I-49, trans-4-(4-((4-(4-((2-(tert-butyl)thiazole-5-carboxamido)methyl)-3-methylphenyl)pyrimidin-2-yl)amino)-1H-pyrazol-1-yl)cyclohexanecarboxylic acid]
< 10	< 500	Cc1cc(-c2ccnc(Nc3cnn(CCN)c3)n2)ccc1CNC(=O)c1cnc(C(C)(C)C)s1 [Example I-50, N-(4-(2-((1-(2-aminoethyl)-1H-pyrazol-4-yl)amino)pyrimidin-4-yl)-2-methylbenzyl)-2-(tert-butyl)thiazole-5-carboxamide]
< 10	500 to 1500	Cc1cc(-c2ccnc(Nc3cn(C)nc3C)n2)ccc1CNC(=O)c1cnc(C(C)(C)C)s1 [Example I-51, 2-(tert-butyl)-N-(4-(2-((1,3-dimethyl-1H-pyrazol-4-yl)amino)pyrimidin-4-yl)-2-methylbenzyl)thiazole-5-carboxamide]
< 10	< 500	Cc1cc(-c2ccnc(Nc3cnn(C)c3C)n2)ccc1CNC(=O)c1cnc(C(C)(C)C)s1 [Example I-52, 2-(tert-butyl)-N-(4-(2-((1,5-dimethyl-1H-pyrazol-4-yl)amino)pyrimidin-4-yl)-2-methylbenzyl)thiazole-5-carboxamide]
< 10	500 to 1500	Cc1cc(-c2ccnc(Nc3cc4n(n3)CCNC4)n2)ccc1CNC(=O)c1cnc(C(C)(C)C)s1 [Example I-54, 2-(tert-butyl)-N-(2-methyl-4-(2-((4,5,6,7-tetrahydropyrazolo[1,5-a]pyrazin-2-yl)amino)pyrimidin-4-yl)benzyl)thiazole-5-carboxamide]
< 10	1500 to 10000	Cc1cc(-c2ccnc(Nc3cc4n(n3)CCN(C)C4)n2)ccc1CNC(=O)c1cnc(C(C)(C)C)s1 [Example I-55, 2-(tert-butyl)-N-(2-methyl-4-(2-((5-methyl-4,5,6,7-tetrahydropyrazolo[1,5-a]pyrazin-2-yl)amino)pyrimidin-4-yl)benzyl)thiazole-5-carboxamide]
< 10	500 to 1500	CCN1CCn2nc(Nc3nccc(-c4ccc(CNC(=O)c5cnc(C(C)(C)C)s5)c(C)c4)n3)cc2C1 [Example I-56, 2-(tert-butyl)-N-(4-(2-((5-ethyl-4,5,6,7-tetrahydropyrazolo[1,5-a]pyrazin-2-yl)amino)pyrimidin-4-yl)-2-methylbenzyl)thiazole-5-carboxamide]
< 10	1500 to 10000	Cc1cc(-c2ccnc(Nc3ccc(N4CCN(C)CC4)cn3)n2)ccc1CNC(=O)c1cnc(C(C)(C)C)s1 [Example I-62, 2-(tert-butyl)-N-(2-methyl-4-(2-((5-(4-methylpiperazin-1-yl)pyridin-2-yl)amino)pyrimidin-4-yl)benzyl)thiazole-5-carboxamide]
< 10	< 500	Cc1cc(-c2cc(Nc3cc4n(n3)CCN(C)C4)ncn2)ccc1CNC(=O)c1cnc(C(C)(C)C)s1 [Example I-63, 2-(tert-butyl)-N-(2-methyl-4-(6-((5-methyl-4,5,6,7-tetrahydropyrazolo[1,5-a]pyrazin-2-yl)amino)pyrimidin-4-yl)benzyl)thiazole-5-carboxamide]
< 10	1500 to 10000	Cc1cc(-c2cc(Nc3cnn(C)c3)ncn2)ccc1CNC(=O)c1cnc(C(C)(C)C)s1 [Example I-64, 2-(tert-butyl)-N-(2-methyl-4-(6-((1-methyl-1H-pyrazol-4-yl)amino)pyrimidin-4-yl)benzyl)thiazole-5-carboxamide]
< 10	500 to 1500	Cc1cc(-c2cc(Nc3cn(C)cn3)ncn2)ccc1CNC(=O)c1cnc(C(C)(C)C)s1 [Example I-65, 2-(tert-butyl)-N-(2-methyl-4-(6-((1-methyl-1H-imidazol-4-yl)amino)pyrimidin-4-yl)benzyl)thiazole-5-carboxamide]
< 10	500 to 1500	Cc1cc(-c2cc(Nc3ccn(C)n3)ncn2)ccc1CNC(=O)c1cnc(C(C)(C)C)s1 [Example I-66, 2-(tert-butyl)-N-(2-methyl-4-(6-((1-methyl-1H-pyrazol-3-yl)amino)pyrimidin-4-yl)benzyl)thiazole-5-carboxamide]
< 10	500 to 1500	Cc1cc(-c2cc(Nc3cnn(C)n3)ncn2)ccc1CNC(=O)c1cnc(C(C)(C)C)s1 [Example I-67, 2-(tert-butyl)-N-(2-methyl-4-(6-((2-methyl-2H-1,2,3-triazol-4-yl)amino)pyrimidin-4-yl)benzyl)thiazole-5-carboxamide]
< 10	< 500	Cc1cc(-c2cc(Nc3ccc(N4CCN(C)CC4)cn3)ncn2)ccc1CNC(=O)c1cnc(C(C)(C)C)s1 [Example I-69, 2-(tert-butyl)-N-(2-methyl-4-(6-((5-(4-methylpiperazin-1-yl)pyridin-2-yl)amino)pyrimidin-4-yl)benzyl)thiazole-5-carboxamide]
< 10	< 500	Cc1cc(-c2ccnc(Nc3ccc(N4CCN(C)CC4)cn3)c2)ccc1CNC(=O)c1cnc(C(C)(C)C)s1 [Example I-70, 2-(tert-butyl)-N-(2-methyl-4-(2-((5-(4-methylpiperazin-1-yl)pyridin-2-yl)amino)pyridin-4-yl)benzyl)thiazole-5-carboxamide]
< 10	1500 to 10000	Cn1cc(Nc2nccc(-c3ccc4c(c3)CCCC4NC(=O)c3cnc(C(C)(C)C)s3)n2)cn1 (stereo not drawn) [Example I-91, 2-(tert-butyl)-N-(6-(2-((1-methyl-1H-pyrazol-4-yl)amino)pyrimidin-4-yl)-1,2,3,4-tetrahydronaphthalen-1-yl)thiazole-5-carboxamide]
< 10	500 to 1500	Cn1cc(Nc2nccc(-c3ccc4c(c3)CCCC4NC(=O)c3cc4c(s3)CCOC4)n2)cn1 (stereo not drawn) [Example I-95, N-(6-(2-((1-methyl-1H-pyrazol-4-yl)amino)pyrimidin-4-yl)-1,2,3,4-tetrahydronaphthalen-1-yl)-6,7-dihydro-4H-thieno[3,2-c]pyran-2-carboxamide]
< 10	1500 to 10000	Cn1cc(Nc2nccc(-c3ccc4c(c3)NCCC4NC(=O)c3cnc(C(C)(C)C)s3)n2)cn1 (stereo not drawn) [Example I-99, 2-(tert-butyl)-N-(7-(2-((1-methyl-1H-pyrazol-4-yl)amino)pyrimidin-4-yl)-1,2,3,4-tetrahydroquinolin-4-yl)thiazole-5-carboxamide]
< 10	1500 to 10000	Cc1cc(-c2ccnc(Nc3cnn(C)c3)n2)ccc1C(CO)NC(=O)c1cnc(C(C)(C)C)s1 (stereo not drawn) [Example I-108, 2-(tert-butyl)-N-(2-hydroxy-1-(2-methyl-4-(2-((1-methyl-1H-pyrazol-4-yl)amino)pyrimidin-4-yl)phenyl)ethyl)thiazole-5-carboxamide]
< 10	1500 to 10000	Cc1cc(-c2nc(Nc3cnn(C)c3)ncc2F)ccc1CNC(=O)c1cnc(C(C)(C)C)s1 [Example I-111, 2-(tert-butyl)-N-(4-(5-fluoro-2-((1-methyl-1H-pyrazol-4-yl)amino)pyrimidin-4-yl)-2-methylbenzyl)thiazole-5-carboxamide]
< 10	500 to 1500	Cn1cc(Nc2nccc(-c3ccc(CNC(=O)c4cc5c(s4)CCOC5)c(C(F)(F)F)c3)n2)cn1 [Example I-115, N-(4-(2-((1-methyl-1H-pyrazol-4-yl)amino)pyrimidin-4-yl)-2-(trifluoromethyl)benzyl)-6,7-dihydro-4H-thieno[3,2-c]pyran-2-carboxamide]
< 10	500 to 1500	Cn1cc(Nc2nccc(-c3ccc(CNC(=O)c4cnc(C(C)(C)C)s4)c(C(F)(F)F)c3)n2)cn1 [Example I-116, 2-(tert-butyl)-N-(4-(2-((1-methyl-1H-pyrazol-4-yl)amino)pyrimidin-4-yl)-2-(trifluoromethyl)benzyl)thiazole-5-carboxamide]
